US20250064056A1, “CONTACT PHEROMONE-CONTAINING COMPOSITION FOR CONTROLLING THRIPS, KIT COMPOSITION FOR CONTROLLING THRIPS, AND METHOD OF CONTROLLING THRIPS BY USING SAME” (Andong National University Industry-Academic Cooperation …, priority 2023, published 2025)

Assays:
Assay type in all cases: in vivo
Total thrips = test: Outdoor pest control test on open-field peppers, total thrips; settings: 3 days after treatment, dose a.i. μg/mL: 7MT 100, Spinetoram 12.5; for Survival (%) Mean: mean of 3 replicates; for Survival (%) I: replicate I; for Survival (%) II: replicate II; for Survival (%) III: replicate III
Protocol: (§1) Each treatment was repeated three times using the egg mass method in open pepper production areas located in Songcheon-dong, Andong-si, Gyeongsangbuk-do. Each test group was pepper individuals, and the distance between these individuals was maintained at least 6 m. The amount of chemical agent sprayed on each pepper individual was 30 mL, and the chemical agent was sufficiently sprayed on the entire peppers. […] […] The control group was treated with a distilled chemical agent. The density of thrips was calculated before treatment and on days 1 and 3 after treatment. The classification of these three different thrips was carried out by using the shape identification method presented by Kim et al. (2021).
(§2) For the indoor behavioral experiment, one-way ANOVA analysis was performed using PROC GLM (SAS Institute, 1989). The effectiveness of outdoor pest control was confirmed by calculating the survival rate and performing […] and two-way ANOVA analysis. Comparison between treatment means was determined based on a Type I error probability of 0.05 using an LSD method.
(§3) A test was conducted to check the outdoor control efficiency by adding a contact pheromone causing behavior disruption to Spinetoram having a relatively high control efficiency against thrips. At the end of May 2023, when the test was conducted, Frankliniella occidentalis and Frankliniella intonsa appeared around peppers in open areas in the Andong region. By taking advantage of this situation, treatment with a chemical agent alone and treatment with a chemical agent/contact pheromone mixture were implemented. In the untreated control group, an increase in the density of two thrips was observed. However, in the mixed treatment with Spinetoram, an overall decrease in the density was clearly observed.
(§4) To analyze the results in detail, a control value on the 3rd day of treatment was calculated. […] The average survival rate was lowered in all treatment cases compared to no treatment cases. […] At this time, when the contact pheromone was added, the control value increased for both thrips.

[1] = system: Frankliniella occidentalis; test: Outdoor pest control test on open-field peppers, F. occidentalis; settings: for Contol efficacy (%) (control value) / Survival (%) Mean / Survival (%) I / Survival (%) II / Survival (%) III: 3 days after treatment, dose a.i. μg/mL: 7MT 100, Spinetoram 12.5; for Survival (%) Mean: mean of 3 replicates; for Survival (%) I: replicate I; for Survival (%) II: replicate II; for Survival (%) III: replicate III
Protocol: as §1, §2, §3, §4

Frankliniella intonsa [2] = test: Outdoor pest control test on open-field peppers, F. intonsa; settings: for Contol efficacy (%) (control value) / Survival (%) Mean / Survival (%) I / Survival (%) II / Survival (%) III: 3 days after treatment, dose a.i. μg/mL: 7MT 100, Spinetoram 12.5; for Survival (%) Mean: mean of 3 replicates; for Survival (%) I: replicate I; for Survival (%) II: replicate II; for Survival (%) III: replicate III
Protocol: as §1, §2, §3, §4

[3] = system: Frankliniella occidentalis; test: Behavioral test (petri dish, treated vs control kidney bean feed), F. occidentalis; settings: 10 μL on filter paper, 10 minutes, FIG. 1B
Protocol: (§5) FIGS. 1A, 1B, and 1C show the results of behavioral tests in a container for behavior analysis (A) for two types of thrips (F. occidentalis (B) and F. intonsa (C)), in the container for behavior analysis (A), a […] placed on a filter paper disk was treated with 7-methyltricosane (7TM), the control diet was treated with acid solvent, after 10 minutes, the number of thrips that reached each feed was counted, each treatment was repeated four times by exchanging the positions of the treatment and control groups, asterisk indicates a significant difference with type I error=0.05 (LSD test), and “NS” means no significant difference; and
(§6) A filter paper was unfolded in the behavior test site, and two kidney beans were placed away at a distance of 50 mm as bait. Each of the test substances was applied on top of each feed. In the test substance treatment, 10 μL of 7TM substance was sprayed onto 5 mm circular filter paper. In the case of the control group, the same volume of hexane was sprayed onto a filter paper as a test substance. Each circular filter paper differently treated was placed on any one of the two kidney beans. Next, test individuals were placed in the center 40 mm away from both feed sources. Afterward, the individuals having reached each feed were counted for 10 minutes at room temperature. 10 individuals were used in each test, and each test was repeated 4 times. The positions of the control group and the treatment group were exchanged in each repetition. […]
(§7) For the indoor behavioral experiment, one-way ANOVA analysis was performed using PROC GLM (SAS Institute, 1989). […] Comparison between treatment means was determined based on a Type I error probability of 0.05 using an LSD method.
(§8) To analyze the behavioral responses of thrips with affinity for a contact pheromone, a behavior analysis container (shown in FIG. 1(A)) was manufactured using a petri dish. Thrips were prepared to be near the treated feed, and after inducing the behavioral responses for 10 minutes, some of the thrips staying near the pheromone-treated feed were counted.

Frankliniella intonsa [4] = test: Behavioral test (petri dish, treated vs control kidney bean feed), F. intonsa; settings: 10 μL on filter paper, 10 minutes, FIG. 1C
Protocol: as §5, §6, §7, §8

[5] = contact pheromone alone, 3rd day of treatment

Row | Compound | Contol efficacy (%) (control value) (Total thrips) | Survival (%) Mean (Total thrips) [%] | Survival (%) I (Total thrips) [%] | Survival (%) II (Total thrips) [%] | Survival (%) III (Total thrips) [%] | Contol efficacy (%) (control value) [1] | Survival (%) Mean [1] [%] | Survival (%) I [1] [%] | Survival (%) II [1] [%] | Survival (%) III [1] [%] | Contol efficacy (%) (control value) (Frankliniella intonsa [2]) | Survival (%) Mean (Frankliniella intonsa [2]) [%] | Survival (%) I (Frankliniella intonsa [2]) [%] | Survival (%) II (Frankliniella intonsa [2]) [%] | Survival (%) III (Frankliniella intonsa [2]) [%] | further results
1 | CCCCCCCCCCCCCCCCC(C)CCCCCC (centres unmarked) [7MT, 7-Methyltricosane] | 12.4 | 222.2 | 300.0 | 233.3 | 133.3 | 31.2 | 358.3 | 500.0 | 300.0 | 275.0 | 32.2 | 115.7 | 133.3 | 150.0 | 63.6 | density of thrips vs no treatment (in words) [1, 5]: it was not; density of thrips vs no treatment (in words) (Frankliniella intonsa [2]; [5]): statistically significantly reduced; behavioral response to pheromone-treated feed ([3]; F. occidentalis adult females): high preference; behavioral response to pheromone-treated feed ([3]; F. occidentalis adult males): avoiding feed sprayed with the contact pheromone; behavioral response to pheromone-treated feed ([3]; F. occidentalis second-instar larvae): did not show specific selection behavior; behavioral response to pheromone-treated feed (Frankliniella intonsa [4]; F. intonsa adult females): high preference; behavioral response to pheromone-treated feed (Frankliniella intonsa [4]; F. intonsa adult males): avoiding feed sprayed with the contact pheromone; behavioral response to pheromone-treated feed (Frankliniella intonsa [4]; F. intonsa second-instar larvae): did not show specific selection behavior
2 | Spinetoram [reference compound] | 76.2 | 60.5 | 73.3 | 46.2 | 61.1 | 71.9 | 146.4 | 150.0 | 175.0 | 114.3 | 80.3 | 33.6 | 40.0 | 22.2 | 38.5 | 
